Reference: patent US20240270748A1 (Merck Patent GmbH, priority 2021, published 2024)

What was measured:
[1] = tested on: NCI-H226 cells; assay: Viability assay in NCI-H226 (Yap-dependent) cells, CyQuant; format: cell-based, human; conditions: Homo sapiens, class symbols
Summary of the method: (§1)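 Seeded cells were dosed 24 h later in duplicate (10-point, 1:3 dilutions, top 30 μM final, 0.3% DMSO) and incubated 96 h at 37 °C. Viability was read with CyQUANT DNA dye after 1 h, fluorescence bottom read. NCI-H226 in RPMI 1640 medium; SW620 YAP/TAZ CRISPR knockout in DMEM/F-12 medium.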

[2] = tested on: YAP-TEAD interaction; assay: SK-HEP-1 reporter assay (8xTEAD responsive elements driving NanoLuc luciferase); format: cell-based; conditions: Homo sapiens, SK-HEP1, SK-HEP-1 reporter assay
Summary of the method: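 SK-HEP-1 cells stably carrying 8×TEAD-driven NanoLuc treated in duplicate, 10-point dose from 30 μM final, 0.3% DMSO, 24 h at 37° C. Luminescence after NanoGlo lysis/substrate addition; IC50 calculated from dose response.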

[3] = tested on: SW620 Yap KO cells; assay: Viability assay in SW620 Yap KO (Yap independent) cells, CyQuant; format: cell-based; conditions: Homo sapiens, SW-620, 96 h
Summary of the method: as §1

[4] = tested on: NCI-H226 human mesothelioma tumor cells; assay: NCI-H226 in vivo efficacy study; conditions: H2d Rag2 female mice, subcutaneous NCI-H226 tumors, po qd for 29 days
Procedure: NCI-H226 In Vivo Efficacy Study
7-9-week-old H2d Rag2 female mice (own breeding, Taconic-Denmark) were inoculated subcutaneously with 5×10^6 NCI-H226 human mesothelioma tumor cells in the right flank. Tumor growth and body weight was measured twice weekly using caliper. Tumor volume was calculated using the formula TV=L×W×W/2.
When tumor volume reached approximately 75-150 mm^3, animals were randomized (Day 0) into treatment groups (n=9-10/group) and treated perorally (po) once daily (qd) for 29 days with either vehicle (20% hydroxypropyl β-cyclodextrin in 50 mM PBS pH 7.4) or Compound no. 2. Compound no. 2 was tested at dosing levels of 1, 3, 10, 30, and 100 mg/kg, respectively. Results are depicted in FIG. 1 (tumor growth over time for vehicle group and each dosage group) and FIG. 2 (final tumor volume of vehicle group and each dosage group).
Statistical analysis of tumor volumes between treatment groups was done using repeated measures analysis of covariance (RM-ANCOVA) in a linear mixed effects model followed by least-squares means pairwise comparisons.
The animal experiment was performed under regulation of the German animal welfare act and in accordance with the EU laboratory animal directive for the area of animal experiments.

[5] = n.d. = value not detectable below threshold given in parentheses, ND = not determinable within the entire range
[6] = n.d. = value not detectable below threshold given in parentheses

melting point [°C]	IC50 ([1]; NCI-H226, 96 h) [nM]	IC50 ([2]; class symbols) [nM]	SMILES	other results
208 to 210	–	–	Cn1cc2c(n1)c1cc(C#N)ccc1n2-c1ccc(C(F)(F)F)cc1 [Example 19, 2-methyl-4-[4-(trifluoromethyl)phenyl]pyrazolo [4,3-b]indole-7-carbonitrile]	–
232 to 234	> 10000	10 to 100	C[C@@H](CO)NS(=O)(=O)c1ccc2c(c1)c1nnn(C)c1n2-c1ccc(C(F)(F)F)cc1 [Example 38, N-[(2S)-1-hydroxypropan-2-yl]-3-methyl-4-[4-(trifluoromethyl)phenyl]-3H,4H-[1,2,3]triazolo[4,5-b]indole-7-sulfonamide]	IC50 ([3]; class symbols): > 30 µM
111 to 112	–	–	COC(=O)c1ccc2c(c1)c1nn(C)cc1n2-c1ccc(C(F)(F)F)cc1 [Example 16, Methyl 2-methyl-4-[4-(trifluoromethyl)phenyl]pyrazolo[4,3-b]indole-7-carboxylate]	–
223 to 224	–	–	C=CC(=O)Nc1ccc2c(c1)c1cn(C)nc1n2-c1ccc(C(F)(F)F)cc1 [Example 20, N-[2-methyl-8-[4-(trifluoromethyl)phenyl]pyrazolo[3,4-b]indol-5-yl]prop-2-enamide]	–
185 to 187	–	–	C=CC(=O)NCc1ccc2c(c1)c1cn(C)nc1n2-c1ccc(C(F)(F)F)cc1 [Example 21, N-([2-methyl-8-[4-(trifluoromethyl)phenyl]pyrazolo [3,4-b]indol-5-yl]methyl)prop-2-enamide]	–
300	–	–	Cn1cc2c3cc(C(=O)NC4CC4)ccc3n(-c3ccc(C(F)(F)F)nc3)c2n1 [Example 27, N-cyclopropyl-2-methyl-8-[6-(trifluoromethyl)pyridin-3-yl]-2H,8H-pyrazolo[3,4-b]indole-5-carboxamide]	–
110 to 111	–	–	Cn1cc2c3cc(C(=O)O[C@@H]4O[C@H](C(=O)O)[C@@H](O)[C@H](O)[C@H]4O)ccc3n(-c3ccc(C(F)(F)F)cc3)c2n1 [Example 30, (2S,3S,4S,5R,6S)-3,4,5-trihydroxy-6-{2-methyl-8-[4-(trifluoromethyl)phenyl]-2H,8H-pyrazolo[3,4-b]indole-5-carbonyloxy}oxane-2-carboxylic acid]	–
169 to 171	–	–	Cc1nc2c(s1)c1cc(C(=O)O)ccc1n2-c1ccc(C(F)(F)F)cc1 [Example 25, 2-methyl-4-[4-(trifluoromethyl)phenyl]-[1,3]thiazolo[4,5-b]indole-7-carboxylic acid]	–
179 to 181	–	–	CCOc1ccc(-n2c3ccc(C(=O)O)cc3c3cn(C)nc32)cc1 [Example 15, 8-(4-Ethoxyphenyl)-2-methyl-2H,8H-pyrazolo[3,4-b]indole-5-carboxylic acid]	–
–	–	–	Cn1cc2c3cc(C(=O)O)ccc3n(-c3ccc(C(F)(F)F)cc3)c2n1 [Example 2, 2-methyl-8-[4-(trifluoromethyl)phenyl]-2H,8H-pyrazolo[3,4-b]indole-5-carboxylic acid]	dosing levels showing maximal inhibition of tumor growth [4]: > 10 mg/kg; tumor growth inhibition compared to vehicle treated group ([4]; all tested dosing levels 1, 3, 10, 30, 100 mg/kg, p-value <0.001): Significant tumor growth inhibition
–	1 to 100	10 to 100	Cc1c2c3cc(C(=O)O)ccc3n(-c3ccc(C(F)(F)F)cc3)c2nn1C [Example C95, 2,3-dimethyl-8-[4-(trifluoromethyl)phenyl]-2H,8H-pyrazolo[3,4-b]indole-5-carboxylic acid]	IC50 [3, 5]: > 30 µM
–	1 to 100	10 to 100	Cn1nc2c3cc(C(=O)N=S(C)(=O)CCO)ccc3n(-c3ccc(C(F)(F)F)cc3)c2n1 (stereo not shown) [Example C31, N-[(2-hydroxyethyl)(methyl)oxo-A6-sulfanylidene]-2-methyl-4-[4-(trifluoromethyl)phenyl]-2H,4H-[1,2,3]triazolo[4,5-b]indole-7-carboxamide]	IC50 [3, 5]: > 30 µM
–	100 to 1000	–	Cn1nc2c3cc(C(=O)N=[S@@](=O)(CCCO)Cc4cccnc4)ccc3n(-c3ccc(C(F)(F)F)cc3)c2n1 (single isomer, unassigned) [Example C200]	IC50 [2, 6]: > 9500 nM; IC50 [3, 6]: > 3 µM
–	1 to 100	10 to 100	Cc1snc2c1c1cc(C(=O)N=S(C)(=O)CCO)ccc1n2-c1ccc(C(F)(F)F)cc1 (stereo not shown) [Example C30, N-[(2-hydroxyethyl)(methyl)oxo-¿6-sulfanylidene]-3-methyl-8-[4-(trifluoromethyl)phenyl]-8H-[1,2]thiazolo[3,4-b]indole-5-carboxamide]	IC50 [3, 5]: > 3 µM
–	1 to 100	10 to 100	CC[C@@H](CO)NC(=O)c1ccc2c(c1)c1c(C)snc1n2-c1ccc(C(F)(F)F)cc1 [Example C83, N-[(2S)-1-hydroxybutan-2-yl]-3-methyl-8-[4-(trifluoromethyl)phenyl]-8H-[1,2]thiazolo [3,4-b]indole-5-carboxamide]	IC50 [3, 5]: > 30 µM
–	1 to 100	–	Cn1cc2c3cc(C(=O)N=S(C)(C)=O)ccc3n(-c3ccc(C(F)(F)F)cn3)c2n1 [Example C149, N-[dimethyl(oxo)-λ^6-sulfanylidene]-2-methyl-8-[5-(trifluoromethyl)pyridin-2-yl]-2H,8H-pyrazolo[3,4-b]indole-5-carboxamide]	IC50 [2, 5]: > 320 nM; IC50 [3, 5]: > 30 µM
–	1 to 100	10 to 100	Cn1nc2c3cc(C(=O)N=S4(=O)CCNCC4)ccc3n(-c3ccc(C(F)(F)F)cc3)c2n1 [Example C261, 2-methyl-N-(1-oxo-1lambda6-thiomorpholin-1-ylidene)-4-[4-(trifluoromethyl)phenyl]-2H,4H-[1,2,3]triazolo[4,5-b]indole-7-carboxamide]	IC50 [3, 6]: > 30 µM
181 to 185	–	–	Cn1cc2c3cc(C(=O)NCc4ccncc4)ccc3n(-c3ccc(C(F)(F)F)cc3)c2n1 [Example 28, 2-methyl-N-[(pyridin-4-yl)methyl]-8-[4-(trifluoromethyl)phenyl]-2H, 8H-pyrazolo[3,4-b]indole-5-carboxamide]	–
–	100 to 1000	10 to 100	Cn1nnc2c3cc(C(=O)N=[S@](=O)(CCO)Cc4cccnc4)ccc3n(-c3ccc(C(F)(F)F)cc3)c21 (single isomer, unassigned) [Example C251]	IC50 [3, 6]: > 3 µM

SMILES	melting point [°C]	IC50 ([1]; NCI-H226, 96 h) [nM]	IC50 ([2]; class symbols) [nM]	other results
Cn1cc2c3cc(CNC(=O)CCl)ccc3n(-c3ccc(C(F)(F)F)cc3)c2n1 [Example 24, 2-chloro-N-([2-methyl-8-[4-(trifluoromethyl)phenyl]pyrazolo[3,4-b]indol-5-yl]methyl)acetamide]	221 to 222	–	100 to 10000	IC50 ([1]; 96 h): 100 to 1000 nM; IC50 ([3]; class symbols): 1 to 10 µM
